Entries after “also recorded” stand apart in the source; their conditions may differ.
How the values were obtained:
ATF4 [1] = test: HEK-ATF4 high-content immunofluorescence imaging assay (ER stress); type: cell-based, human; conditions: for ER stress response in the phenotypic assay (in words): HEK293 cells, 6 h, nuclear ATF4 as marker
Protocol: Here, the nuclear localization of the transcription factor ATF4 (which leads to subsequent expression of CHOP and cell death) was used as a phenotypic marker of ER stress (Figure 3A). Use of multi(384)-well plate format allowed wild-type HEK cells to be treated with analogues over a titrating concentration range of 0.5 nM to […] for 6 h in a quantitative manner (Figure 3C). After fixation with paraformaldehyde, high-content cellular fluorescence microscopy imaging was used to both determine the site and quantify the location of ATF4[32] (Figure 3B,C). Thus, immunofluorescent staining of the cells exploited a primary rabbit anti-ATF4 (D4B8) antibody followed by a solution containing a secondary Alexa Fluor 488-labeled goat anti-rabbit IgG along with Hoechst 33342 nuclei stain. In this way, confocal fluorescence microscopy at excitation wavelengths of 405 and 488 nm produced, as a direct primary readout, the intensity of ATF4 located in the nucleus as well as the ratio of ATF4 located between the nucleus (colocalized with Hoechst) and cytoplasm (see Figure 3B,C for representative images and the Supporting Information for channel-by-channel images). Concurrent readout of the number of stained nuclei (Hoechst nuclei stain) in live cells was also used as an internal cytotoxicity measure. This high-content method allowed detailed quantitative cellular dose responses to be determined with precision (Figure 3D). […] Consistent with ATF4 as a driver of apoptosis, this also drove cell death at higher concentrations (EC50 ∼ 10 μM) similar to those determined previously.[33] This therefore identified a clear dose–response window of more than 2 orders of magnitude over such key downstream events.
Figure 3 High-content phenotypic screen for putative ER stress inducers. (A) Schematic of the screening process. 12,000 HEK293 WT cells per well were plated into a 384-well plate and incubated at 37 °C for 24 h. Compounds were serially diluted and added to the plate and incubated for 6 h at 37 °C, at which point the cells were fixed with 4% PFA in PBS. The plates were then submitted to indirect ATF4 immunofluorescence, in which the plate was incubated with a primary anti-ATF4 (D4B8) antibody, followed by Alexa Fluor 488-labeled goat anti-rabbit secondary antibody and Hoechst 33342 dye. Plates were imaged using an OPERA-Phenix high-content imaging platform with fluorescence excitation at 405 and 488 nm. The images were analyzed, and the nuclear intensity of ATF4 for each cell was quantitatively determined (gray filled circles, left-hand axis in (D)) as well as the count of live cells (black squares, right-hand axis in (D)). Created in BioRender. https://BioRender.com/z32w873 (B) Representative section of imaging (red = nuclei, green = ATF4) for a given cellular population at a single dose (here exposed to tunicamycin at 41.2 nM). (C) Representative series panels of dose–response images after exposure to three different Tun-XE,YG analogues and DMSO control. (D) Corresponding resulting quantification of the high-throughput microscopy assay displaying the live cell count (black, right axis) and the nuclear intensity of ATF4 (gray, left axis) of tunicamycin and two lipid altered analogues, one with a large lipid at the gating position (Tun-9E,9G) and other with a short lipid at this position (Tun-8E,2G). See the Supporting Information for full details.
Supplementary Phenotypic Screening Methods
Tunicamycin analogues were tested in the HEK-ATF4 High Content Imaging assay to assess their ER stress generating ability. Wild-type HEK293 cells were plated in 384-well imaging assay plates at a density of 12,000 cells per well in growth medium (containing DMEM/F12, 10% FBS, 2 mM L-Glutamine, 100 U/mL Penicillin - 100µg/mL Streptomycin) and incubated at 37°C, 5% CO2. 24-hrs later, the medium was changed to 50 µl assay medium per well (DMEM/F12, 0.3% FBS, 2mM L-Glutamine, 100 U/mL Penicillin – 100 µg/mL […]
Streptomycin). […]

His-tagged IgG-Fc domain = test: In cell glycoprotein inhibition assay (IgG-Fc expression, SDS-PAGE and Western blot); type: cell-based, human; conditions: HEK293T cells, 3 days, analogue 10 µM down to 0.5 nM (Tun-8E,2G 300 µM down to 15 nM), Figure S13
ATF4 [2] = test: ATF4 high-content imaging assay in primary human dermal fibroblasts; type: cell-based; conditions: 6 h, Figures S8–S12
Protocol: A targeted panel of tunicamycin analogues was tested in the ATF4 High Content Imaging assay to assess their ER stress generating ability in a primary cell line. Normal adult human dermal fibroblasts (NHDF-Ad, Lonza) were plated in a 96-well Phenoplate (PerkinElmer) at a seeding density of 10,000 cells per well in fibroblast growth medium (containing fibroblast basal medium, 10% FBS, 0.1% insulin, 0.1% hFGF-B, 0.1% Gentamicin/Amphotericin) and incubated at 37°C, 5% CO2. Treatment with pre-diluted compounds was performed after 24 hrs with final concentrations ranging from 10 µM – 5 nM (final DMSO concentration was 0.3%). Low control (0.3% DMSO final conc.) and high control (0.3 µM tunicamycin final conc.) wells were again included for assay normalization. Treated cells were incubated for 6 hrs at 37°C, 5% CO2 before fixing (4% PFA in PBS, 20 min at room temperature followed by washing (3x) with PBS). Direct ATF4 immunofluorescence staining was then performed, whereby cells were treated with a Coralite Plus 488-conjugated ATF4 Polyclonal antibody (CL488-10835, Proteintech) in a 1:100 dilution of Perm-block buffer (10% FBS, 0.3% TritonX-100 in PBS) for 2 hrs. Nuclei staining was then performed with DRAQ5 dye (ab108410, Abcam) at 1:1000 in PBS. Plates were imaged on a Leica SP8 confocal microscope equipped with 488 nm and 633 nm excitation and images were analysed using script-based algorithms as described for HEK cells above. […]

DPAGT1 = target: T1, DPAGT1 (Homo sapiens, UniProt Q9H3H5); test: Heat-induced denaturation assay of DPAGT1 with bound ligand; type: binding
T1 sequence (Q9H3H5 1-408): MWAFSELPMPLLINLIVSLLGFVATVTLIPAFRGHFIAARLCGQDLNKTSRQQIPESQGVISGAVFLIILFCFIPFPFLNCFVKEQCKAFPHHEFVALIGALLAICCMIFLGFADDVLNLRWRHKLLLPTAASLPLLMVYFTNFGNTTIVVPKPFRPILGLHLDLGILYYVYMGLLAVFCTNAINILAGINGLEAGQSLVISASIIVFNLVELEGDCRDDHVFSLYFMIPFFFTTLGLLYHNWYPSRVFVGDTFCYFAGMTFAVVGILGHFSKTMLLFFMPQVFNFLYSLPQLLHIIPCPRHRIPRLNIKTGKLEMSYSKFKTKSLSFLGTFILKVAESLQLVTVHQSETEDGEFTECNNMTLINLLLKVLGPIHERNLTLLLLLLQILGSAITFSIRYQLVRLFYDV
Excerpt: The structure of DPAGT1 in complex with the archetypal scaffold natural product tunicamycin[21] […] Trp122 moves so as to use its indole moiety to hydrophobically provide a binding “cap” or “lid” over the proximal portion of the 10′-N lipid chain.

HEK293 cells = test: HEK-CellCount readout (stained nuclei of live cells, internal cytotoxicity measure); type: cell-based, human
Protocol: Here, the nuclear localization of the transcription factor ATF4 (which leads to subsequent expression of CHOP and cell death) was used as a phenotypic marker of ER stress (Figure 3A). Use of multi(384)-well plate format allowed wild-type HEK cells to be treated with analogues over a titrating concentration range of 0.5 nM to […] for 6 h in a quantitative manner (Figure 3C). After fixation with paraformaldehyde, high-content cellular fluorescence microscopy imaging was used to both determine the site and quantify the location of ATF4[32] (Figure 3B,C). […] In this way, confocal fluorescence microscopy at excitation wavelengths of 405 and 488 nm produced, as a direct primary readout, the intensity of ATF4 located in the nucleus as well as the ratio of ATF4 located between the nucleus (colocalized with Hoechst) and cytoplasm (see Figure 3B,C for representative images and the Supporting Information for channel-by-channel images). Concurrent readout of the number of stained nuclei (Hoechst nuclei stain) in live cells was also used as an internal cytotoxicity measure. This high-content method allowed detailed quantitative cellular dose responses to be determined with precision (Figure 3D). […]
Figure 3 High-content phenotypic screen for putative ER stress inducers. […] Plates were imaged using an OPERA-Phenix high-content imaging platform with fluorescence excitation at 405 and 488 nm. […]

| Compound | ER stress response in the phenotypic assay (in words) (ATF4 [1]) | glycosylation state of expressed IgG-Fc (in words) (His-tagged IgG-Fc domain) | increase in ATF4 (in words) (ATF4 [2]) | glycosylation state of expressed IgG-Fc (in words) (His-tagged IgG-Fc domain; listed as Tun) | EC50 (ATF4 [1]; wild-type HEK293 cells, 6 h treatment, read-out: EC50, increase in ATF4 in the nucleus) [µM] | Tm,1/2 of DPAGT1 bound to ligand (DPAGT1; heat-induced denaturation, DPAGT1 alone 51.7 ± 0.2 °C) [°C] | ΔTm,1/2 of DPAGT1 (DPAGT1; versus DPAGT1 alone) [°C] | cell death (in words) (HEK293 cells) | EC50 (HEK293 cells; 6 h, live cell nuclei count, read-out: EC50, cell death) [µM] |
| --- | --- | --- | --- | --- | --- | --- | --- | --- | --- |
| CCCCCCCCC(=O)N[C@H]1[C@@H](O[C@@H]2O[C@H](C[C@@H](O)[C@H]3O[C@@H](n4ccc(=O)[nH]c4=O)[C@H](O)[C@@H]3O)[C@H](O)[C@H](O)[C@H]2NC(=O)CCC)O[C@H](CO)[C@@H](O)[C@@H]1O [Tun-4E,9G] | did not induce any ER stress response |  |  |  |  |  |  |  |  |
| CCCCCCCC(=O)N[C@H]1[C@H](O[C@H]2O[C@H](CO)[C@@H](O)[C@H](O)[C@H]2NC(C)=O)O[C@H](C[C@@H](O)[C@H]2O[C@@H](n3ccc(=O)[nH]c3=O)[C@H](O)[C@@H]2O)[C@H](O)[C@@H]1O [Tun-8E,2G] | did not induce ER stress | unglycosylated IgG Fc protein is observed; also recorded: expression of non-glycosylated IgG-Fc | only Tun itself leads to an increase in ATF4 |  |  |  |  |  |  |
| CCCCCCCCC(=O)N[C@H]1[C@H](O[C@H]2O[C@H](CO)[C@@H](O)[C@H](O)[C@H]2NC(=O)CCCCCCCC)O[C@H](C[C@@H](O)[C@H]2O[C@@H](n3ccc(=O)[nH]c3=O)[C@H](O)[C@@H]2O)[C@H](O)[C@@H]1O [Tun-9E,9G] | did not induce any ER stress response | expression of intact glycosylated protein | only Tun itself leads to an increase in ATF4 |  |  |  |  |  |  |
| CCCCCCCCC(=O)N[C@H]1[C@H](O[C@H]2O[C@H](CO)[C@@H](O)[C@H](O)[C@H]2NC(=O)CC(C)C)O[C@H](C[C@@H](O)[C@H]2O[C@@H](n3ccc(=O)[nH]c3=O)[C@H](O)[C@@H]2O)[C@H](O)[C@@H]1O [Tun-9E,i5G] | did not induce ER stress |  |  |  |  |  |  |  |  |
| tunicamycin [reference compound] | clear ER stress response | unglycosylated IgG Fc protein is observed | leads to an increase in ATF4 | expression of non-glycosylated IgG-Fc | 0.044 ± 0.0032 | 83.0 ± 0.4 | 31.3 | causing cell death | ~10 |

Reference: paper PMC11758266, “Lipid-Modulated, Graduated Inhibition of N-Glycosylation Pathway Priming Suggests Wide Tolerance of ER Proteostasis to Stress” (ACS Central Science, 2024)
